This note sets out measurements from patent publication US6608058B2, “6-methylnicotinamide derivatives as antiviral agents” (Dong Wha Pharm. Ind. Co., Ltd., priority 2000, dated 2003).

One assay deals with HBV polymerase. Briefly: Inhibitory effect on the in vitro activities of HBV polymerase in reverse transcription (ELISA-type). The assay is classed as biochemical. An excerpt:
The present inventors submitted application for a patent concerning HBV polymerase genetically expressed in and separated from E. coli, the process of its preparation, and the method to measure the enzyme activities (KR 94-3918, KR 96-33998). In the present experiments HBV polymerase was used which had been expressed in E. coli as stated above.
The method used in the present invention to measure in vitro reverse transcribing activities of HBV polymerase is as follows. Basic principles are the same as those for ELISA, nucleotides with biotin- or digoxigenin- group are included as substrates and anti-DIG antibodies attached to peroxidase enzyme recognize the polymerized substrates.
To the wells coated with streptavidin, 20 μl of HBV polymerase, 20 μl of reaction mixture (10 μM each of DIG-UTP and Biotin-UTP, 46 mM Tris-HCl, 266 mM KCl, 27.5 mM MgCl2, 9.2 mM DTT substrate/primer hybrid), and 20 μl of test compound (added to […]) were added and allowed to react at 22° C. for 15 hrs. During this reaction, HBV polymerase catalyzes DNA synthesis, and digoxigenin and biotin attached to nucleotides form bonds to streptavidin coated on the bottom of wells. When the reaction was done, each well was washed with 250 μl of cleaning buffer (pH 7.0) for 30 seconds, which was repeated five times to remove remaining impurities. 200 μl of anti-DIG-POD antibody was added to each well and allowed to react for 1 hr at 37° C., and the wells were washed with cleaning buffer to remove impurities. 200 μl each of ABTS™, a substrate of peroxidase, was then added and allowed to react at room temperature for 30 min. Absorbancy was measured at 405 nm using ELISA reader.
The inhibitory effects in HBV polymerase activities for reverse transcription were calculated using the group without test compound as a control and the results are shown in Table 1 as follows.

Assay [1] concerns the target T1, HIV reverse transcriptase (Human immunodeficiency virus type 1 group M subtype B, UniProt P04585).
T1 construct: purchased Boehringer Mannheim
In words: Inhibitory effect on the in vitro HIV reverse transcriptase activity (non-radioactive RT assay kit). The assay is classed as biochemical. Conditions: for inhibition at 0.1 µg/mL: 0.1 μg/ml; for inhibition at 1 µg/mL: 1 μg/ml. How it is done:
Non-radioactive reverse transcriptase assay kit (Boehringer Mannheim) was used in the measurement of in vitro transcriptase activities. 20 μl (40 ng) of HIV reverse transcriptase and 20 μl of reaction mixture containing matrix-primer hybrid poly(A)oligo(dT)15, DIG(digoxigenin)-dUTP, biotin-dUTP, dTTP were added to wells coated with streptavidin, and the test compounds prepared were also added at the final concentrations of 0.1 and 1 μ/ml and allowed to react at 37° C. for 1 hr. At this time, DNA is formed from RNA by the action of HIV reverse transcriptase, forming bonds with streptavidin coated on the bottom of wells through digoxigenin and biotin moieties attached to nucleotides.
When the reaction was completed, each well was washed with 250 μl of washing buffer (pH 7.0) for 30 sec. five times to remove remaining impurities. 200 μl of anti-DIG-POD […] was added to each well, then the mixture was allowed to react at 37° C. for 1 hr and washed as above to remove impurities. 200 μl of ABTS™, a substrate for peroxidase, was added to each well and the mixture was allowed to react at room temperature for 30 min. Absorbance at 405 nm was measured for each solution using ELISA reader to determine the inhibitory effect on the HIV reverse transcriptase activities. The percentage of inhibition in the activity of HIV reverse transcriptase was calculated using the group without test compound as control and the results are represented in Table 3.

Broadly, the inhibition is how much of the control response was suppressed. Consider `Cc1ccc(C(=O)NCc2cccnc2)c(Nc2ccc3[nH]ncc3c2)n1` [Example 5, 2-(1H-5-indazolylamino)-6-methyl-N-(3-pyridylmethyl)nicotinamide], for which the “Inhibitory activity on HBV-RT (%)” value was 37% in the assay on HBV polymerase (0.01 μg/ml), 43% in the assay with HBV polymerase (0.1 μg/ml) and 65% in the assay with HBV polymerase (1 μg/ml). Moreover, in assay [1], the inhibition at 0.1 µg/mL came out at 38%. The inhibition at 1 µg/mL in assay [1] amounted to 69%.

Regarding `Cc1ccc(C(=O)NC(C)C)c(Nc2ccc3[nH]ncc3c2)n1` [Example 1, 2-(1H-5-indazolylamino)-N-isopropyl-6-methylnicotinamide], the “Inhibitory activity on HBV-RT (%)” value turned out to be 30% in the assay on HBV polymerase (0.01 μg/ml), 49% in the assay with HBV polymerase (0.1 μg/ml) and 78% in the assay with HBV polymerase (1 μg/ml). Further, the inhibition at 0.1 µg/mL in assay [1] is 42%. Moreover, the inhibition at 1 µg/mL in assay [1] turned out to be 75%.

With `CCN(CC)CCNC(=O)c1ccc(C)nc1Nc1ccc2cn[nH]c2c1` [Example 13, N-[2-(diethylamino)ethyl]-2-(1H-6-indazolylamino)-6-methylnicotinamide], the entries for the “Inhibitory activity on HBV-RT (%)” value in the assay on HBV polymerase (0.01 μg/ml), in the assay on HBV polymerase (0.1 μg/ml) and with HBV polymerase (1 μg/ml) were 15%, 45% and 54%, respectively.

Regarding `Cc1ccc(C(=O)Nc2cccnc2)c(Nc2ccc3[nH]ncc3c2)n1` [Example 4, 2-(1H-5-indazolylamino)-6-methyl-N-(3-pyridyl)nicotinamide], the “Inhibitory activity on HBV-RT (%)” value with HBV polymerase (0.01 μg/ml) is on record as 50%; in the assay on HBV polymerase (0.1 μg/ml), 64%; in the assay with HBV polymerase (1 μg/ml), 92%. The inhibition at 0.1 µg/mL in assay [1] was 40%. The inhibition at 1 µg/mL in assay [1] amounted to 64%.

With `Cc1ccc(C(=O)NN2CCOCC2)c(Nc2ccc3cn[nH]c3c2)n1` [Example 16, 2-(1H-6-indazolylamino)-6-methyl-N-(4-morpholinyl)nicotinamide], the “Inhibitory activity on HBV-RT (%)” value with HBV polymerase (0.01 μg/ml) is listed as 35%; with HBV polymerase (0.1 μg/ml) it was 51%; with HBV polymerase (1 μg/ml), 78%.

Regarding `Cc1ccc(C(=O)NCCN2CCCCC2)c(Nc2ccc3cn[nH]c3c2)n1` [Example 15, 2-(1H-6-indazolylamino)-6-methyl-N-[2-(1-piperidinyl)ethyl]nicotinamide], the “Inhibitory activity on HBV-RT (%)” value in the assay with HBV polymerase (0.01 μg/ml) was 12%; in the assay with HBV polymerase (0.1 μg/ml) it was 57%; with HBV polymerase (1 μg/ml), 87%. Further, the inhibition at 0.1 µg/mL in assay [1] turned out to be 43%. Further, the inhibition at 1 µg/mL in assay [1] was determined as 78%.

Consider `Cc1ccc(C(=O)NCCN(C)C)c(Nc2ccc3cn[nH]c3c2)n1` [Example 12, N-[2-(dimethylamino)ethyl]-2-(1H-6-indazolylamino)-6-methylnicotinamide], for which the “Inhibitory activity on HBV-RT (%)” value came out at 49% in the assay with HBV polymerase (0.01 μg/ml), 60% with HBV polymerase (0.1 μg/ml) and 86% in the assay on HBV polymerase (1 μg/ml).

As for `Cc1ccc(C(=O)NN2CCOCC2)c(Nc2ccc3[nH]ncc3c2)n1` [Example 2, 2-(1H-5-indazolylamino)-6-methyl-N-(4-morpholinyl)nicotinamide], the “Inhibitory activity on HBV-RT (%)” value came out at 42% in the assay with HBV polymerase (0.01 μg/ml), 57% in the assay on HBV polymerase (0.1 μg/ml) and 88% in the assay with HBV polymerase (1 μg/ml). For the same compound, the inhibition at 0.1 µg/mL in assay [1] was 49%. Also, the inhibition at 1 µg/mL in assay [1] was 84%.

With `Cc1ccc(C(=O)Nc2cccnc2)c(Nc2ccc3cn[nH]c3c2)n1` [Example 18, 2-(1H-6-indazolylamino)-6-methyl-N-(3-pyridyl)nicotinamide], the entries for the “Inhibitory activity on HBV-RT (%)” value in the assay with HBV polymerase (0.01 μg/ml), in the assay with HBV polymerase (0.1 μg/ml) and with HBV polymerase (1 μg/ml) were 18%, 40% and 69%, respectively.

With `Cc1ccc(C(=O)NCCN2CCOCC2)c(Nc2ccc3cn[nH]c3c2)n1` [Example 14, 2-(1H-6-indazolylamino)-6-methyl-N-[2-(4-morpholinyl)ethyl]nicotinamide], the “Inhibitory activity on HBV-RT (%)” value with HBV polymerase (0.01 μg/ml) is on record as 52%; in the assay on HBV polymerase (0.1 μg/ml), 68%; in the assay with HBV polymerase (1 μg/ml), 91%. For the same compound, in assay [1], the inhibition at 0.1 µg/mL is 41%. For the same compound, the inhibition at 1 µg/mL in assay [1] stood at 70%.

Consider `Cc1ccc(C(=O)NC(C)C)c(Nc2ccc3cn[nH]c3c2)n1` [Example 8, 2-(1H-6-indazolylamino)-N-isopropyl-6-methylnicotinamide], for which the “Inhibitory activity on HBV-RT (%)” value in the assay with HBV polymerase (0.01 μg/ml) came out at 23%; in the assay with HBV polymerase (0.1 μg/ml) it was 54%; with HBV polymerase (1 μg/ml) it was 78%. The inhibition at 0.1 µg/mL in assay [1] stood at 28%. In addition, in assay [1], the inhibition at 1 µg/mL worked out at 65%.

Regarding `Cc1ccc(C(=O)NN2CCN(C)CC2)c(Nc2ccc3cn[nH]c3c2)n1` [Example 17, 2-(1H-6-indazolylamino)-6-methyl-N-(4-methyl-1-piperazinyl)nicotinamide], the figures for the “Inhibitory activity on HBV-RT (%)” value in the assay on HBV polymerase (0.01 μg/ml), in the assay on HBV polymerase (0.1 μg/ml) and in the assay with HBV polymerase (1 μg/ml) were 24%, 56% and 86%, respectively. In assay [1], the inhibition at 0.1 µg/mL is 50%. The inhibition at 1 µg/mL in assay [1] is 84%.

As for `Cc1ccc(C(=O)NCc2cccnc2)c(Nc2ccc3cn[nH]c3c2)n1` [Example 19, 2-(1H-6-indazolylamino)-6-methyl-N-(3-pyridylmethyl)nicotinamide], the “Inhibitory activity on HBV-RT (%)” value with HBV polymerase (0.01 μg/ml) is given as 32%; with HBV polymerase (0.1 μg/ml), 48%; with HBV polymerase (1 μg/ml), 76%.

In the case of `Cc1ccc(C(=O)NCCc2ccccn2)c(Nc2ccc3[nH]ncc3c2)n1` [Example 6, 2-(1H-5-indazolylamino)-6-methyl-N-(2-pyridylethyl)nicotinamide], the “Inhibitory activity on HBV-RT (%)” value in the assay with HBV polymerase (0.01 μg/ml) is listed as 40%; in the assay on HBV polymerase (0.1 μg/ml), 55%; in the assay with HBV polymerase (1 μg/ml) it was 84%. Moreover, the inhibition at 0.1 µg/mL in assay [1] amounted to 45%. Besides, the inhibition at 1 µg/mL in assay [1] was found to be 77%.

Regarding `Cc1ccc(C(=O)N2CCOCC2)c(Nc2ccc3cn[nH]c3c2)n1` [Example 23, 2-(1H-6-indazolylamino)-6-methyl-3-(4-morpholinylcarbonyl)pyridine], the results for the “Inhibitory activity on HBV-RT (%)” value with HBV polymerase (0.01 μg/ml), in the assay on HBV polymerase (0.1 μg/ml) and in the assay on HBV polymerase (1 μg/ml) were 12%, 40% and 62%, respectively.

As to `CNC(=O)c1ccc(C)nc1Nc1ccc2cn[nH]c2c1` [Example 7, 2-(1H-6-indazolylamino)-6-methyl-N-methylnicotinamide], the figures for the “Inhibitory activity on HBV-RT (%)” value in the assay on HBV polymerase (0.01 μg/ml), in the assay on HBV polymerase (0.1 μg/ml) and in the assay on HBV polymerase (1 μg/ml) were 21%, 50% and 70%, respectively.

For the compound `Cc1ccc(C(=O)N(N)C(=O)c2cccnc2)c(Nc2ccc3cn[nH]c3c2)n1` [Example 22, 2-(1H-6-indazolylamino)-6-methyl-N-(3-pyridylcarbonyl)-3-pyridinecarbohydrazide], the “Inhibitory activity on HBV-RT (%)” value in the assay with HBV polymerase (0.01 μg/ml) was determined as 26%; with HBV polymerase (0.1 μg/ml) it was 54%; with HBV polymerase (1 μg/ml) it was 85%.

Regarding `Cc1ccc(C(=O)NC(C)(C)C)c(Nc2ccc3cn[nH]c3c2)n1` [Example 9, N-(t-butyl)-2-(1H-6-indazolylamino)-6-methylnicotinamide], the “Inhibitory activity on HBV-RT (%)” value with HBV polymerase (0.01 μg/ml) is reported as 20%; with HBV polymerase (0.1 μg/ml), 48%; in the assay on HBV polymerase (1 μg/ml) it was 65%.

On to `Cc1ccc(C(=O)NCCO)c(Nc2ccc3cn[nH]c3c2)n1` [Example 10, N-(2-hydroxyethyl)-2-(1H-6-indazolylamino)-6-methylnicotinamide], for which the “Inhibitory activity on HBV-RT (%)” value with HBV polymerase (0.01 μg/ml) came out at 48%; with HBV polymerase (0.1 μg/ml) it was 62%; with HBV polymerase (1 μg/ml) it was 89%.
